Measured values taken from patent US9568483B2, “Molecular subtyping, prognosis and treatment of prostate cancer” (CORNELL UNIVERSITY, priority 2011, dated 2017).
“Also recorded” adds a separate entry of the source.

Key:
NCI-H660 cells [1] = assay: Cell cycle FACS analysis, NCI-H660; assay type: cell-based, human; details: 48 hrs treatment
Protocol: (§1) Cell Cycle Analysis. Cells were treated with PHA-739358 for 48 hrs. After treatment, cells were washed with cold PBS and fixed in 70% EtOH at −20° C. overnight. Cells were washed and suspended in 500 μl PBS containing 0.1% Triton X-100, 20 μg/ml Propidium Iodide (PI) and 200 μg/ml RNase A, incubated for 30 min at room temperature and subjected to FACS analysis using a LSR II Analyzer (BD Biosciences).

LTL-352 xenograft = LTL-352 xenograft study; assay type: in vivo, NOD/SCID mice; details: LTL-352 xenografts; 30 mg/kg IP BID, 5 days; P<0.001
Protocol: (§2) Drug Treatment. PHA-739358 was obtained from Nerviano Medical Sciences (Milan, Italy) in powder form (MW 414.36). Prostate cell lines for this study were obtained from the American Type Culture Collection (Manassas, Va.). RWPE (20×10^3 per well), NCI-H660 (20×10^3), DU145 (5×10^3 per well), VCaP (20×10^3 per well) and LNCaP (1.5×10^4 per well) cells were seeded on 96-well-tissue culture plates. At 24 hours, cell lines were treated with vehicle (0.5% DMSO) or escalating doses of PHA-739358 (5 nM, 50 nM, 100 nM, 500 nM, 1 uM, 5 uM). At 48 hr, 72 h, 96 h, and 120 h, viability was assessed by performing WST-1 assay (Roche, Indianapolis, Ind.) reading absorbance at 450 nm according to the manufacturer's instructions. Xenografts were prepared by injection of 1 million NCI-H660 cells, VCaP cells, or LNCaP cells into NU/J mice (Jackson Laboratories, Bar Harbor, Me.). LTL-362 xenografts were established at BC Cancer Center Living Tumor Laboratory as previously described (TUNG et al., Prostate (2010)). […] Mice were sacrificed on day 17, and tumors were evaluated for weight, gross pathology, histology, and IHC. […]
(§3) Xenografts. […] Mice were sacrificed on day 17, and tumors were evaluated for weight, gross pathology, histology, and IHC. […] Analysis was performed using LivingImage software (Xenogen) by measurement of the average photon flux (measured in photons/s/cm2/steradian) within a region of interest.

NCI-H660 xenografts = assay: NCI-H660 xenograft study; assay type: in vivo, NU/J mice
Protocol: Drug Treatment. PHA-739358 was obtained from Nerviano Medical Sciences (Milan, Italy) in powder form (MW 414.36). Prostate cell lines for this study were obtained from the American Type Culture Collection (Manassas, Va.). RWPE (20×10^3 per well), NCI-H660 (20×10^3), DU145 (5×10^3 per well), VCaP (20×10^3 per well) and LNCaP (1.5×10^4 per well) cells were seeded on 96-well-tissue culture plates. At 24 hours, cell lines were treated with vehicle (0.5% DMSO) or escalating doses of PHA-739358 (5 nM, 50 nM, 100 nM, 500 nM, 1 uM, 5 uM). At 48 hr, 72 h, 96 h, and 120 h, viability was assessed by performing WST-1 assay (Roche, Indianapolis, Ind.) reading absorbance at 450 nm according to the manufacturer's instructions. Xenografts were prepared by injection of 1 million NCI-H660 cells, VCaP cells, or LNCaP cells into NU/J mice (Jackson Laboratories, Bar Harbor, Me.). LTL-362 xenografts were established at BC Cancer Center Living Tumor Laboratory as previously described (TUNG et al., Prostate (2010)). 3×3×2 […] tissue fragments were subcutaneously engrafted into fourteen 6-8 week old NOD/SCID mice. All xenograft tumors were allowed to grow to an average tumor […] of 100 mm^3. 20 LNCaP, 20 VCaP, 40 NCI-H660, 14 LTL-362 mice were randomized to treatment with PHA-739358 at 30 mg/kg intraperitoneal dosing on days 1-5 or vehicle. Body weight, tumor volume based on caliper measurements ([…]) and luciferase imaging were performed every 3 or 4 days after treatment. Mice were sacrificed on day 17, and tumors were evaluated for weight, gross pathology, histology, and IHC. Three tumors were processed during treatment (on day 4) to evaluate for phosphorylated histone 3 expression by IHC.
(§4) Immunohistochemistry (IHC). […] IHC was quantified on scale 0-3 and overexpression was defined as any staining intensity seen of target cells above background (similar methodology as was used in PARK et al., Neoplasia, 12:590-8 (2010)).
(§5) Xenografts. […] Mice were sacrificed on day 17, and tumors were evaluated for weight, gross pathology, histology, and IHC. […]

LNCaP cells = assay: Cell cycle FACS analysis, LNCaP; assay type: cell-based; details: 48 hrs treatment
Protocol: as §1

NCI-H660 cells [2] = assay: WST-1 viability assay, NCI-H660; assay type: cell-based, human; details: compared to two PCA cell lines (DU145, VCaP) and benign RWPE-1 cells; 72 hours; FIG. 4B
Protocol: as §2, with “(2010)). 3×3×2 […] tissue fragments were subcutaneously engrafted into fourteen 6-8 week old NOD/SCID mice. All xenograft tumors were allowed to grow to an average tumor […] of 100 mm^3.” for “(2010)).”

[3] = mouse, in vivo, ip, 30 mg/kg
Protocol: as §2, §3

LNCaP-MYCN cells = assay: Cell cycle FACS analysis, LNCaP-MYCN; assay type: cell-based; details: 48 hrs treatment
Protocol: as §1

LNCaP xenografts = assay: LNCaP xenograft study; assay type: in vivo, NU/J mice
Protocol: as §2, with “Me.).” for “Me.). LTL-362 xenografts were established at BC Cancer Center Living Tumor Laboratory as previously described (TUNG et al., Prostate (2010)).”
as §4, §5

LNCaP-n-Myc cells = assay: WST-1 viability assay, LNCaP cells stably transfected with MYCN; assay type: cell-based; details: compared to control LNCaP cells (LNCaP-EV); 72 hours; FIG. 4A
Protocol: as §2, with “(2010)). 3×3×2 […] tissue fragments were subcutaneously engrafted into fourteen 6-8 week old NOD/SCID mice. All xenograft tumors were allowed to grow to an average tumor […] of 100 mm^3.” for “(2010)).”

VCaP xenografts = assay: VCaP xenograft study; assay type: in vivo, NU/J mice; details: 30 mg/kg intraperitoneal, days 1-5
Protocol: as §2, §3

CO[C@@H](C(=O)N1Cc2n[nH]c(NC(=O)c3ccc(N4CCN(C)CC4)cc3)c2C1)c1ccccc1 [PHA-739358]
Polyploidy (NCI-H660 cells [1]): induced | G2/M arrest (NCI-H660 cells [1]; FIG. 5): no significant G2/M arrest | average tumor shrinkage (LTL-352 xenograft): 50-87% | average tumor shrinkage (NCI-H660 xenografts; NCI-H660 xenografts, 30 mg/kg IP BID, 5 days, P<0.001): 50-87% | SYP (synaptophysin) expression (IHC) (NCI-H660 xenografts; treated NCI-H660 xenografts, FIG. 4F): negative; also recorded: completely suppressed | Phosphorylated histone 3 expression (IHC) (NCI-H660 xenografts; treated NCI-H660 xenografts, day 4 of treatment): significantly inhibited | Polyploidy (LNCaP cells): induced | G2/M arrest (LNCaP cells; FIG. 5): dose dependent G2/M arrest | sensitivity (viability) (NCI-H660 cells [2]): enhanced sensitivity | toxicity as determined by body weight [3]: without significant toxicity | Polyploidy (LNCaP-MYCN cells): induced | G2/M arrest (LNCaP-MYCN cells; FIG. 5): dose dependent G2/M arrest | effect on tumor size (LNCaP xenografts; LNCaP xenografts, 30 mg/kg IP BID, 5 days): no effect | Phosphorylated histone 3 expression (IHC) (LNCaP xenografts; treated LNCaP xenografts, day 4 of treatment): not in the LNCaP xenografts | in vitro sensitivity (viability) (LNCaP-n-Myc cells): enhanced in vitro sensitivity | effect on tumor size (VCaP xenografts): cytostatic effect
